Test system: Ctenocephalides felis
Test: flea membrane feed screen
Parameters: species or system Ctenocephalides felis (cat flea)
Conditions: at 30 μg/ml
Description: The flea membrane feed screen is used to measure the biological activities of the compounds claimed. The assay involves in vitro testing against Ctenocephalides felis conducted according to the following general procedure.
Fleas are cultured in vitro using dog blood. 25-30 adult Ctenocephalides felis (cat flea) were collected and placed in a test chamber (50 ml polystyrene tube with fine nylon mesh sealing the end). Citrated dog blood was prepared by adding aqueous sodium citrate solution (10 ml, 20% w/v, 20 g sodium citrate in 100 ml water) to dog blood (250 ml). Test compounds were dissolved in dimethylsulfoxide to give a working stock solution of 4 mg/ml. The stock solution (12.5 μl) was added to citrated dog blood (5 ml) to give an initial test concentration of 10 μg/ml. For testing at 30 μg/ml, working stock solutions of 12 mg/ml were prepared.
Citrated dog blood containing the test compound (5 ml, 10 μg/ml) was placed into a plastic petri dish lid, which was kept at 37° C. on a heated pad. Parafilm was stretched over the open top to form a tight membrane for the fleas to feed through. The test chamber containing the fleas was placed carefully onto the parafilm membrane and the fleas commenced feeding. […]
The fleas were observed and the percentage of fleas killed recorded. […]

N#Cc1nn(-c2c(Cl)cc(C(F)(F)F)cc2Cl)c(N)c1C1CC1(Br)Br (stereo not shown) [5-amino-3-cyano-4-(2,2-dibromocyclopropyl)-1-(2,6-dichlorophenyl-4-trifluoromethyl-)pyrazole]
activity in the ED80 flea screen: inactive

Source: US8084486B2, “Substituted arylpyrazoles” (Pfizer Limited, priority 2003, dated 2011)
